Laboratory results from patent US10919852B2, “Immunomodulator compounds” (CHEMOCENTRYX, INC., priority 2017, dated 2021).

target: human PD-L1 / Human PD-1 (Homo sapiens (Human), UniProt Q9NZQ7); assay: Enzyme-Linked Immunosorbent Assay (ELISA), PD-1/PD-L1 binding; settings: plate-coated human PD-L1, biotinylated human PD-1
Method: Biological Example: Enzyme-Linked Immunosorbent Assay—ELISA
96 Well plates were coated with […] of human PD-L1 (obtained from R&D) in PBS overnight at 4° C. The wells were then blocked with 2% BSA in PBS (W/V) with 0.05% TWEEN-20 for 1 hour at 37° C. The plates were washed 3 times with PBS/0.05% TWEEN-20 and the compounds were serial diluted (1:5) in dilution medium and added to the ELISA plates. Human PD-1 and biotin 0.3 μg/mL (ACRO Biosystems) were added and incubated for 1 hour at 37° C. then washed 3 times with PBS/0.05% TWEEN-20. A second block was performed with 2% BSA in PBS (W/V)/0.05% TWEEN-20 for 10 min at 37° C. and was washed 3 times with PBS/0.05% TWEEN-20. Streptavidin-HRP was added for 1 hour at 37° C. then washed 3 times with PBS/0.05% TWEEN-20. TMB substrate was added and reacted for 20 min at 37° C. A stop solution (2 N aqueous H2SO4) was added. The absorbance was read at 450 nm using a micro-plate spectrophotometer.

human PD-L1 / Human PD-1, sequence (Q9NZQ7 19-239): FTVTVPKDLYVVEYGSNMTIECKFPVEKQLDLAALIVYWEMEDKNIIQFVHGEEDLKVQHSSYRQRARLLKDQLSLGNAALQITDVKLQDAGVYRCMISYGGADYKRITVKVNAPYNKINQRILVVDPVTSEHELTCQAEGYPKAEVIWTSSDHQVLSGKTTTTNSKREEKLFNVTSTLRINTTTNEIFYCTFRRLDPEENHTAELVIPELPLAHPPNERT

C[C@@](CO)(NCc1cc(Cl)c(O[C@H]2CCc3c(-c4cccc(OCCCN5CCC(O)CC5)c4F)cccc32)cc1OCc1cncc(C#N)c1)C(=O)O and CC(CO)(NCc1cc(Cl)c(O[C@H]2CCc3c(-c4cccc(OCCCN5CCOCC5)c4Cl)cccc32)cc1OCc1cncc(C#N)c1)C(=O)O (stereo partly drawn) cannot be ordered by IC50: under 5 nM for the first, under 5 nM for the second.

CCOc1cc(O[C@H]2CCc3c(-c4cccc(OCCCN5CCC(O)CC5)c4C)cccc32)c(Cl)cc1CN[C@@H](CO)C(=O)O and CCOc1cc(O[C@H]2CCc3c(-c4cccc(OCCCN5CC[C@@H](O)C5)c4C)cccc32)c(Cl)cc1CN[C@@H](CO)C(=O)O cannot be ordered by IC50: under 5 nM for the first, under 5 nM for the second.

CCOc1cc(O[C@H]2CCc3c(-c4cccc(OCCCN5CCC(O)CC5)c4C)cccc32)c(Cl)cc1CN[C@H](C(=O)O)[C@@H](C)O and CCOc1cc(O[C@H]2CCc3c(-c4cccc(OCCCN5CC[C@@H](O)C5)c4C)cccc32)c(Cl)cc1CN[C@H](C(=O)O)[C@@H](C)O cannot be ordered by IC50: under 5 nM for the first, under 5 nM for the second.

CCOc1cc(O[C@H]2CCc3c(-c4cccc(OCCCN5CC[C@@H](O)C5)c4C)cccc32)c(Cl)cc1CNC(C)(CO)C(=O)O (stereo partly drawn) and CCOc1cc(O[C@H]2CCc3c(-c4cccc(OCCCN5CC(O)C5)c4Cl)cccc32)c(Cl)cc1CN[C@@](C)(CO)C(=O)O cannot be ordered by IC50: under 5 nM for the first, under 5 nM for the second.

N#Cc1cncc(COc2cc(O[C@H]3CCc4c(-c5cccc(OCCCN6CC7(CC(F)C7)C6)c5Cl)cccc43)c(Cl)cc2CN[C@@H]2CCCC[C@@H]2O)c1 and N#Cc1cncc(COc2cc(O[C@H]3CCc4c(-c5cccc(OCCCN6CC7(C6)CC(F)(F)C7)c5Cl)cccc43)c(Cl)cc2CN[C@@H]2CCCC[C@@H]2O)c1 cannot be ordered by IC50: under 5 nM for the first, under 5 nM for the second.

Cc1c(OCCCNCC(C)(C)O)cccc1-c1cccc2c1CC[C@@H]2Oc1cc(OCc2cncc(C#N)c2)c(CNCC2CCC(=O)N2)cc1Cl (stereo partly drawn) and Cc1c(OCCCN2CC(F)C2)cccc1-c1cccc2c1CC[C@@H]2Oc1cc(OCc2cncc(C#N)c2)c(CNCC2CCC(=O)N2)cc1Cl (stereo partly drawn) cannot be ordered by IC50: under 5 nM for the first, under 5 nM for the second.

First: N#Cc1cc(C#N)cc(COc2cc(O[C@@H]3c4cccc(-c5cccc(OCCCN6CC(O)C6)c5Cl)c4C[C@@H]3F)c(Cl)cc2CNC[C@@H]2CCC(=O)N2)c1
Second: N#Cc1cc(C#N)cc(COc2cc(O[C@@H]3c4cccc(-c5cccc(OCCCN6CC(O)C6)c5Cl)c4C[C@@H]3F)c(Cl)cc2CNC[C@H]2CCC(=O)N2)c1
The IC50 of the first is higher: 5 to 500 nM for the first, under 5 nM for the second. The second is the more potent here.

First: N#Cc1cncc(COc2cc(O[C@H]3CCc4c(-c5cccc(OCCCN6CCC(F)CC6)c5C(F)(F)F)cccc43)c(Cl)cc2CNCC2CCC(=O)N2)c1 (stereo partly drawn)
Second: N#Cc1cncc(COc2cc(O[C@H]3CCc4c(-c5cccc(OCCCN6CCC(F)CC6)c5Cl)cccc43)c(Cl)cc2CNC[C@@H]2CCC(=O)N2)c1
The IC50 of the first is higher: 5 to 500 nM for the first, under 5 nM for the second.

CC(C)(O)[C@H](NCc1cc(Cl)c(O[C@H]2CCc3c(-c4cccc(OCCCN5CCC(F)CC5)c4Cl)cccc32)cc1OCc1cncc(C#N)c1)C(=O)O and N#Cc1cncc(COc2cc(O[C@H]3CCc4c(-c5cccc(OCCCN6CCC(F)CC6)c5Cl)cccc43)c(Cl)cc2CN[C@@H]2CCCC[C@@H]2O)c1 cannot be ordered by IC50: under 5 nM for the first, under 5 nM for the second.

N#Cc1cncc(COc2cc(O[C@H]3CCc4c(-c5cccc(OCCCN6CCC(F)CC6)c5Cl)cccc43)c(Cl)cc2CN2CCCC3(C2)NC(=O)NC3=O)c1 (stereo partly drawn) and N#Cc1cncc(COc2cc(O[C@H]3CCc4c(-c5cccc(OCCCN6CC(O)C6)c5Cl)cccc43)c(Cl)cc2CN2CCC3(C2)NC(=O)NC3=O)c1 (stereo partly drawn) fall in the same range of IC50: 5 to 500 nM for the first, 5 to 500 nM for the second.

CCOc1cc(O[C@H]2CCc3c(-c4cccc(OCCCN5CCC(F)CC5)c4Cl)cccc32)c(Cl)cc1CN[C@@H]1CCCC[C@@H]1O and COc1cc(O[C@H]2CCc3c(-c4cccc(OCCCN5CCC(F)CC5)c4Cl)cccc32)c(Cl)cc1CN[C@@H]1CCCC[C@@H]1O fall in the same range of IC50: 5 to 500 nM for the first, 5 to 500 nM for the second.

CCOc1cc(O[C@H]2CCc3c(-c4cccc(OCCCN5CCC(F)CC5)c4Cl)cccc32)c(Cl)cc1CNCC1CCC(=O)N1 (stereo partly drawn) and CCOc1cc(O[C@@H]2c3cccc(-c4cccc(OCCCN5CCC(F)CC5)c4Cl)c3C[C@@H]2F)c(Cl)cc1CNC[C@H]1CCC(=O)N1 fall in the same range of IC50: 5 to 500 nM for the first, 5 to 500 nM for the second.

Compared with N#Cc1cncc(COc2cc(O[C@H]3CCc4c(-c5cccc(OCCCN6CCC(F)CC6)c5C#N)cccc43)c(Cl)cc2CNCC2CCC(=O)N2)c1 (stereo partly drawn), Cc1c(OCCCN2CCC(F)CC2)cccc1-c1cccc2c1CC[C@@H]2Oc1cc(OCc2cncc(C#N)c2)c(CNC[C@@H]2CCC(=O)N2)cc1Cl is lower in IC50: 5 to 500 nM for the first, under 5 nM for the second. The second is the more potent here.

CC(C)OC(=O)[C@](C)(CO)NCc1cc(Cl)c(O[C@H]2CCc3c(-c4cccc(OCCCN5CC(O)C5)c4Cl)cccc32)cc1OCc1cncc(C#N)c1 and CCOC(=O)[C@](C)(CO)NCc1cc(Cl)c(O[C@H]2CCc3c(-c4cccc(OCCCN5CC(O)C5)c4Cl)cccc32)cc1OCc1cncc(C#N)c1 cannot be ordered by IC50: under 5 nM for the first, under 5 nM for the second.

C[C@@](CO)(NCc1cc(Cl)c(O[C@@H]2c3cccc(-c4cccc(OCCCN5CC(O)C5)c4Cl)c3C[C@@H]2F)cc1OCc1cc(C#N)cc(C#N)c1)C(=O)O and C[C@@](CO)(NCc1cc(Cl)c(O[C@@H]2c3cccc(-c4cccc(OCCCN5CC(O)C5)c4Cl)c3C[C@@H]2F)cc1OCc1cncc(C#N)c1)C(=O)O cannot be ordered by IC50: under 5 nM for the first, under 5 nM for the second.

N#Cc1cncc(COc2cc(O[C@H]3CCc4c(-c5cccc(OCCCN6CC(O)C6)c5C(F)(F)F)cccc43)c(Cl)cc2CNCC2CCC(=O)N2)c1 (stereo partly drawn) and Cc1c(OCCCN2CC3(CC(F)C3)C2)cccc1-c1cccc2c1CC[C@@H]2Oc1cc(OCc2cncc(C#N)c2)c(CNCC2CCC(=O)N2)cc1Cl (stereo partly drawn) fall in the same range of IC50: 5 to 500 nM for the first, 5 to 500 nM for the second.

First: CCOc1cc(O[C@H]2CCc3c(-c4cccc(OCCCN5CC(O)C5)c4Cl)cccc32)c(Cl)cc1CN[C@@H]1CCCC[C@@H]1O
Second: N#Cc1cncc(COc2cc(O[C@H]3CCc4c(-c5cccc(OCCCN6CC(O)C6)c5Cl)cccc43)c(Cl)cc2CN[C@@H]2CCCC[C@@H]2O)c1
The IC50 of the first is higher: 5 to 500 nM for the first, under 5 nM for the second. The second is the more potent here.

CCOc1cc(O[C@H]2CCc3c(-c4cccc(OCCCN5CC(O)C5)c4Cl)cccc32)c(Cl)cc1CNCC1CCC(=O)N1 (stereo partly drawn) and CCOc1cc(O[C@H]2CCc3c(-c4cccc(OCCCN5CCC(F)CC5)c4Cl)cccc32)c(Cl)cc1CNC(C)(CO)CO fall in the same range of IC50: 5 to 500 nM for the first, 5 to 500 nM for the second.

First: N#Cc1cncc(COc2cc(O[C@H]3CCc4c(-c5cccc(OCCCN6CC(F)(F)C6)c5Cl)cccc43)c(Cl)cc2CN[C@@H]2CCCC[C@@H]2O)c1
Second: N#Cc1cncc(COc2cc(O[C@H]3CCc4c(-c5cccc(OCCCN6CC[C@@H](F)C6)c5Cl)cccc43)c(Cl)cc2CN[C@@H]2CCCC[C@@H]2O)c1
The IC50 of the first is higher: 5 to 500 nM for the first, under 5 nM for the second.

N#Cc1cncc(COc2cc(O[C@H]3CCc4c(-c5cccc(OCCCN6CC[C@H](F)C6)c5Cl)cccc43)c(Cl)cc2CN[C@@H]2CCCC[C@@H]2O)c1 and N#Cc1cncc(COc2cc(O[C@H]3CCc4c(-c5cccc(OCCCN6CC(O)C6)c5Cl)cccc43)c(Cl)cc2CN2CCC(O)CC2)c1 cannot be ordered by IC50: under 5 nM for the first, under 5 nM for the second.

N#Cc1cc(C#N)cc(COc2cc(O[C@@H]3c4cccc(-c5cccc(OCCCN6CCC(F)CC6)c5Cl)c4C[C@H]3F)c(Cl)cc2CNC[C@H]2CCC(=O)N2)c1 and N#Cc1cc(C#N)cc(COc2cc(O[C@@H]3c4cccc(-c5cccc(OCCCN6CC(F)C6)c5Cl)c4C[C@H]3F)c(Cl)cc2CNC[C@H]2CCC(=O)N2)c1 fall in the same range of IC50: 5 to 500 nM for the first, 5 to 500 nM for the second.

CCOc1cc(O[C@@H]2c3cccc(-c4cccc(OCCCN5CCC(F)CC5)c4Cl)c3C[C@@H]2F)c(Cl)cc1CN[C@@H]1CCCC[C@@H]1O and CCOc1cc(O[C@@H]2c3cccc(-c4cccc(OCCCN5CC(F)C5)c4Cl)c3C[C@@H]2F)c(Cl)cc1CN[C@@](C)(CO)C(=O)O fall in the same range of IC50: 5 to 500 nM for the first, 5 to 500 nM for the second.

CC1(O)CN(CCCOc2cccc(-c3cccc4c3CC[C@@H]4Oc3cc(OCc4cncc(C#N)c4)c(CN[C@@](C)(CO)C(=O)O)cc3Cl)c2Cl)C1 and CC(CO)(NCc1cc(Cl)c(O[C@H]2CCc3c(-c4cccc(OCCCN5CC6(CC(O)C6)C5)c4Cl)cccc32)cc1OCc1cncc(C#N)c1)C(=O)O (stereo partly drawn) cannot be ordered by IC50: under 5 nM for the first, under 5 nM for the second.

First: CCOc1cc(O[C@@H]2c3cccc(-c4cccc(OCCCN5CC(O)C5)c4Cl)c3C[C@@H]2F)c(Cl)cc1CN[C@@](C)(CO)C(=O)O
Second: C[C@@](CO)(NCc1cc(Cl)c(O[C@@H]2c3cccc(-c4cccc(OCCCN5CC(F)C5)c4Cl)c3C[C@@H]2F)cc1OCc1cncc(C#N)c1)C(=O)O
The IC50 of the first is higher: 5 to 500 nM for the first, under 5 nM for the second.

CC(CO)(NCc1cc(Cl)c(O[C@H]2CCc3c(-c4cccc(OCCCN5CC(O)C5)c4Cl)cccc32)cc1OCc1cccnc1)C(=O)O (stereo partly drawn) and CC(CO)(NCc1cc(Cl)c(O[C@H]2CCc3c(-c4cccc(OCCCN5CC(O)C5)c4Cl)cccc32)cc1OCc1cncc(Cl)c1)C(=O)O (stereo partly drawn) cannot be ordered by IC50: under 5 nM for the first, under 5 nM for the second.

CC(CO)(NCc1cc(Cl)c(O[C@H]2CCc3c(-c4cccc(OCCCN5CC(F)C5)c4Cl)cccc32)cc1OCc1cncc(C#N)c1)C(=O)O (stereo partly drawn) and CC(CO)(NCc1cc(Cl)c(O[C@H]2CCc3c(-c4cccc(OCCCN5CC6(CC(F)C6)C5)c4Cl)cccc32)cc1OCc1cncc(C#N)c1)C(=O)O (stereo partly drawn) cannot be ordered by IC50: under 5 nM for the first, under 5 nM for the second.

C[C@@](CO)(NCc1cc(Cl)c(O[C@H]2CCc3c(-c4cccc(OCCCN5CC(O)C5)c4Cl)cc(F)cc32)cc1OCc1cncc(C#N)c1)C(=O)O and C[C@@H](O)[C@H](NCc1cc(Cl)c(O[C@H]2CCc3c(-c4cccc(OCCCN5CC(O)C5)c4Cl)cccc32)cc1OCc1cncc(C#N)c1)C(N)=O cannot be ordered by IC50: under 5 nM for the first, under 5 nM for the second.

C[C@@H](O)[C@H](NCc1cc(Cl)c(O[C@H]2CCc3c(-c4cccc(OCCCN5CC(O)C5)c4Cl)cccc32)cc1OCc1cncc(C#N)c1)C(=O)NS(C)(=O)=O and N#Cc1cncc(COc2cc(O[C@H]3CCc4c(-c5cccc(OCCCN6CC(O)C6)c5Cl)cccc43)c(Cl)cc2CN2CC(O)C2)c1 cannot be ordered by IC50: under 5 nM for the first, under 5 nM for the second.

In the case of N#Cc1cncc(COc2cc(O[C@H]3CCc4c(-c5cccc(OCCCN6CC(O)C6)c5Cl)cccc43)c(Cl)cc2CN2CC[C@@H](O)C2)c1, the IC50 is reported as under 5 nM.
